Literature values, collected in US20150335678A1, “METHOD OF ACTIVATING STEM CELLS IN AN ANIMAL AND THE USE OF CHLORINE DIOXIDE FOR PREPARING MEDICINES FOR ACTIVATING STEM CELLS IN AN ANIMAL” (priority 2012, published 2015).
Like-named read-outs stand apart in the source and are kept apart here.

Experiments:
rat = conditions: cited from earlier work
mouse = mouse per os; cited from earlier work

Compound: [Na+].[O-][Cl+][O-] [NaClO2]
- accumulative toxicity classification of aqueous solution (rat; rat, in vivo): non-obvious accumulative toxic
- toxicity classification of aqueous solution (rat; rat, in vivo): actually non-toxic

Compound: stable chlorine dioxide
- LD50 (mouse): > 10000 mg/kg

Compound: [Na+].[O-][Cl+2]([O-])[O-] [NaClO3]
- accumulative toxicity classification of aqueous solution (rat; ClO2 276.5 mg/L, NaClO2 200 mg/L, NaClO3): non-obvious accumulative toxic
- toxicity classification of aqueous solution (rat; ClO2 276.5 mg/L, NaClO2 and NaClO3 200 mg/L, ClO2 mixed solution total concentration 553 mg/L): actually non-toxic
